From patent US20060258754A1, “Method of treating endothelial dysfunction, oxidative stress and related diseases” (priority 2004, published 2006)
Entries after “also recorded” stand apart in the source; their conditions may differ.

Columns and labels:
[1] = system: aortic rings; assay: Rat aortic thoracic rings: acetylcholine relaxation after phenylephrine contraction, 4-week oral treatment; type: in vivo, alloxan-diabetic male Wistar rats; settings: for endothelial dysfunction overall: 4-week oral administration versus saline treated alloxan diabetic rats; for effect on macrovascular endothelial dysfunction at highest acetyl choline concentrations: FIG. 2, FIG. 3; for effect on macrovascular endothelial dysfunction at intermediate acetylcholine concentration: acetylcholine 10^-7 M
Method: Male Wistar rats, weighing between 230-250 g, fed regular chow, with free access to water were separated in four groups (n=10/each). The first two groups, termed normoglycemic, were treated with saline (0.1 mL/100 g/12 h) by the oral route (intragastric gavage) or untreated for four weeks. The second two groups, hyperglycemic, were treated with saline (0.1 mL/100 g/12 h) or treated with D-chiro-inositol (20 mg/kg/12 h) under the same protocol. […] Diabetes was induced by a single intravenous injection of 45 mg/kg alloxan as described by Sannomiya et al., 1997 ( ). Diabetes was diagnosed 96 h after injection by blood glucose assay >200 mg/dL. All protocols were approved by the local committee and follow the Guide for the Care and Use of Laboratory Animals published by the US National Institutes of Health (NIH Publication No. 85-23, revised 1996). After completion of blood pressure measurements and vascular mesenteric bed collection, animals were sacrificed by exsanguination while under anesthesia. The thoracic aorta was excised and rapidly cleansed of connective tissue in Petri dishes containing warmed and gassed (95% O2 in 5% CO2) Krebs-Henseleit solution (KHS). The aorta segment was cut in small rings (≈5 mm) and mounted horizontally in 5 mL chambers for isometric recording of tension. The resting tension was adjusted to 1 g and the tissue allowed to equilibrate for 1 hour with a 15 min washout period. Tissues were kept in KHS at 37° C., gassed with the O2, CO2 mixture and isometric recordings made with a force displacement transducer connected to a four-channel polygraph (Narco Biosystems, Houston, Tex., USA). After the equilibration period, tissues were contracted with a submaximal concentration of phenylephrine (≈60% maximal response) until two similar responses were obtained in order to ensure reproducibility of the contraction curves. […] The acetylcholine dose response curve was repeated after a 60 min washout interval. All experiments were performed in the presence of indomethecin (10 μM) and guanethidine (10 μM) to prevent the production of vasoactive prostanoids. At least 6 separate experiments will be performed each in duplicate.

[2] = system: diabetic aortic rings; assay: NO-induced relaxation in diabetic aortic rings contracted with phenylephrine; settings: 0.1 μM phenylephrine, inositol 10 μM, 1 hour, FIG. 14
Method: NO action was investigated in aortic rings and RbCC. […] The data in FIGS. 14 are expressed as mean±SEM of 5 experimental units. * p<0.05, ANOVA followed by Tukey-Kramer, diab (C) vs. Inositol treated. # p<0.05, ANOVA followed by Tukey-Kramer, Eugly vs. Inositol treated. In FIG. 14, Veh=vehicle; C=diabetic control; Diab=diabetic control; Eugly=euglycemic tissue. Relaxation was restored toward or to normal by incubation with inositols.

[3] = Blood glucose and serum triglycerides after chronic administration in alloxan diabetic rats; type: in vivo, alloxan induced diabetic rats; settings: 20 mg/kg 2× daily for 4 weeks
Excerpt: The use of DCI and its derivative for the treatment of a variety of metabolic disorders, more specifically those that are related to insulin resistance have been the subject matter of patents and publications. The treatment of insulin resistance in humans by the administration of DCI was the subject matter of U.S. Pat. No. 5,124,360. Since DCI is found in the food chain it has a safety profile that warrants its use as a nutritional supplement. A method of treating a cluster of diseases with elevated blood sugar by the administration of a dietary supplement of DCI was the subject of U.S. Pat. No. 5,428,066.
Male Wistar rats, weighing between 230-250 g, fed regular chow, with free access to water were separated in four groups (n=10/each). The first two groups, termed normoglycemic, were treated with saline (0.1 mL/100 g/12 h) by the oral route (intragastric gavage) or untreated for four weeks. The second two groups, hyperglycemic, were treated with saline (0.1 mL/100 g/12 h) or treated with D-chiro-inositol (20 mg/kg/12 h) under the same protocol. […] Diabetes was induced by a single intravenous injection of 45 mg/kg alloxan as described by Sannomiya et al., 1997 ( ). Diabetes was diagnosed 96 h after injection by blood glucose assay >200 mg/dL. […]

[4] = chronic oral administration, FIG. 3

SMILES	endothelial dysfunction overall [1]	endothelial dysfunction overall ([1]; listed as D-chiro-inositol)	relaxant response induced by acetylcholine, reversal of the pre-contractile state ([1]; D-chiro-inositol 20 mg/kg/12 h by gavage four weeks, lower acetylcholine concentrations, saline diabetic 57.4±4.5%)	effect on macrovascular endothelial dysfunction at highest acetyl choline concentrations ([1]; chronic oral administration)	effect on macrovascular endothelial dysfunction at intermediate acetylcholine concentration [1, 4]	effect on macrovascular endothelial dysfunction at intermediate acetylcholine concentration ([1]; chronic oral administration, FIG. 3, listed as D-chiro-inositol)	relaxation to added NO [2]	blood glucose [3]	serum triglycerides [3]	effect on macrovascular endothelial dysfunction at lowest acetyl choline concentrations [1, 4]
OC1C(O)C(O)C(O)C(O)C1O [DCI, D-chiro-inositol]	effective in improving endothelial dysfunction	prevented the endothelial dysfunction	100%	partially restored to normal; also recorded: the most effective	followed by DCI, pinitol and myoinositol in descending order of effect	active at intermediate acetyl choline concentrations	restored relaxation to normal	decreased	decreased	–
CCCC(=O)O[C@@H]1[C@@H](O)[C@@H](O)[C@H](O)[C@H](O)[C@H]1OC(=O)CCC [dbDCI, 3,4-dibutyryl-D-chiroinositol]	–	–	–	the most effective	greatest effect	–	restored relaxation to normal	–	–	most effective at the lowest acetyl choline concentrations
